Laboratory results reported in the NIST ThermoML archive (doi:10.1016/j.jct.2013.07.006).
Numbers after ± are expanded uncertainties.

Columns and labels:
[1] = molar heat capacity at constant pressure; settings: 101.33 kPa, Vacuum adiabatic calorimetry
[2] = for molar entropy: 101.33 kPa, Vacuum adiabatic calorimetry

[Cl][Ru-2]([Cl])([Cl])([Cl])([Cl])[Cl].[NH4+].[NH4+] [diammonium hexachlororuthenate]
Settings	molar entropy, [2] [J/K/mol]	molar heat capacity at constant pressure, [1] [J/K/mol]
5 K, Crystal 2	0.1106 ± 0.016	0.3475 ± 0.03
5.89 K, Crystal 2	–	0.5877 ± 0.027
7.09 K, Crystal 2	–	1.079 ± 0.031
8.03 K, Crystal 2	–	1.495 ± 0.038
9.46 K, Crystal 2	–	2.313 ± 0.048
10 K, Crystal 2	0.9395 ± 0.025	2.661 ± 0.058
10.8 K, Crystal 2	–	3.236 ± 0.061
11.99 K, Crystal 2	–	4.23 ± 0.075
13.2 K, Crystal 2	–	5.407 ± 0.091
14.5 K, Crystal 2	–	6.916 ± 0.11
15 K, Crystal 2	2.827 ± 0.058	7.358 ± 0.11
15.9 K, Crystal 2	–	8.589 ± 0.12
17.35 K, Crystal 2	–	10.37 ± 0.14
18.81 K, Crystal 2	–	12.31 ± 0.16
20 K, Crystal 2	5.82 ± 0.11	13.97 ± 0.17
20.31 K, Crystal 2	–	14.26 ± 0.17
21.81 K, Crystal 2	–	16.45 ± 0.2
23.4 K, Crystal 2	–	18.76 ± 0.22
25 K, Crystal 2	9.703 ± 0.17	21.24 ± 0.24
25.1 K, Crystal 2	–	21.38 ± 0.25
26.81 K, Crystal 2	–	24.18 ± 0.27
28.54 K, Crystal 2	–	26.91 ± 0.3
30 K, Crystal 2	14.44 ± 0.11	29.49 ± 0.14
30.27 K, Crystal 2	–	30.01 ± 0.14
32.02 K, Crystal 2	–	33.06 ± 0.15
33.91 K, Crystal 2	–	36.87 ± 0.16
35 K, Crystal 2	19.68 ± 0.12	38.87 ± 0.17
35.95 K, Crystal 2	–	40.66 ± 0.17
37.99 K, Crystal 2	–	44.72 ± 0.17
40 K, Crystal 2	25.51 ± 0.14	48.89 ± 0.19
40.05 K, Crystal 2	–	48.96 ± 0.19
42.12 K, Crystal 2	–	53.55 ± 0.2
44.2 K, Crystal 2	–	58.17 ± 0.21
45 K, Crystal 2	31.89 ± 0.17	59.91 ± 0.22
46.3 K, Crystal 2	–	62.77 ± 0.22
48.41 K, Crystal 2	–	67.6 ± 0.23
50 K, Crystal 2	38.8 ± 0.19	71.36 ± 0.24
50.8 K, Crystal 2	–	73.15 ± 0.24
53.47 K, Crystal 2	–	79.64 ± 0.26
55 K, Crystal 2	46.15 ± 0.22	83.48 ± 0.25
56.15 K, Crystal 2	–	86.22 ± 0.25
58.85 K, Crystal 2	–	92.96 ± 0.33
60 K, Crystal 2	53.94 ± 0.24	95.95 ± 0.33
61.55 K, Crystal 2	–	100.02 ± 0.33
64.27 K, Crystal 2	–	107.34 ± 0.33
65 K, Crystal 2	62.15 ± 0.27	109.25 ± 0.33
67.13 K, Crystal 2	–	114.99 ± 0.33
70 K, Crystal 2	70.73 ± 0.31	122.72 ± 0.33
70.82 K, Crystal 2	–	125.13 ± 0.33
75 K, Crystal 2	79.67 ± 0.34	136.44 ± 0.42
75.14 K, Crystal 2	–	136.94 ± 0.42
79.45 K, Crystal 2	–	149.83 ± 0.42
80 K, Crystal 2	88.97 ± 0.33	151.49 ± 0.42
83.79 K, Crystal 2	–	162.3 ± 0.42
85 K, Crystal 2	98.53 ± 0.42	165.79 ± 0.42
88.18 K, Crystal 2	–	174.11 ± 0.5
90 K, Crystal 2	108.42 ± 0.5	179.09 ± 0.5
92.84 K, Crystal 1	–	184.67 ± 0.5
92.84 K, Crystal 2	–	184.67 ± 0.5
95 K, Crystal 1	118.32 ± 0.5	184.75 ± 0.5
97.88 K, Crystal 1	–	182 ± 0.5
100 K, Crystal 1	127.71 ± 0.5	180.76 ± 0.42
103.06 K, Crystal 1	–	178.1 ± 0.42
105 K, Crystal 1	136.44 ± 0.58	179.26 ± 0.42
108.18 K, Crystal 1	–	182.59 ± 0.5
110 K, Crystal 1	144.92 ± 0.58	184.83 ± 0.5
113.23 K, Crystal 1	–	188.41 ± 0.5
115 K, Crystal 1	153.24 ± 0.58	190.49 ± 0.5
118.27 K, Crystal 1	–	194.14 ± 0.5
120 K, Crystal 1	161.47 ± 0.67	196.14 ± 0.5
123.32 K, Crystal 1	–	199.88 ± 0.5
125 K, Crystal 1	169.62 ± 0.67	201.54 ± 0.5
128.39 K, Crystal 1	–	205.12 ± 0.5
130 K, Crystal 1	177.6 ± 0.67	206.62 ± 0.5
133.46 K, Crystal 1	–	209.77 ± 0.5
135 K, Crystal 1	185.5 ± 0.67	211.35 ± 0.5
138.55 K, Crystal 1	–	214.6 ± 0.5
140 K, Crystal 1	193.31 ± 0.75	215.93 ± 0.5
143.8 K, Crystal 1	–	219.17 ± 0.5
145 K, Crystal 1	200.96 ± 0.75	220.17 ± 0.5
149.2 K, Crystal 1	–	223.33 ± 0.58
150 K, Crystal 1	208.44 ± 0.75	224.24 ± 0.58
154.62 K, Crystal 1	–	227.65 ± 0.58
160 K, Crystal 1	223.16 ± 0.83	231.48 ± 0.58
160.04 K, Crystal 1	–	231.39 ± 0.58
165.48 K, Crystal 1	–	235.13 ± 0.58
170 K, Crystal 1	237.38 ± 0.83	238.13 ± 0.58
170.9 K, Crystal 1	–	238.71 ± 0.58
176.33 K, Crystal 1	–	242.45 ± 0.58
180 K, Crystal 1	251.18 ± 0.91	244.78 ± 0.58
181.77 K, Crystal 1	–	245.78 ± 0.58
187.21 K, Crystal 1	–	249.27 ± 0.58
190 K, Crystal 1	264.65 ± 0.91	251.43 ± 0.58
192.66 K, Crystal 1	–	253.09 ± 0.58
198.19 K, Crystal 1	–	256.75 ± 0.58
200 K, Crystal 1	277.7 ± 1	257.83 ± 0.58
203.88 K, Crystal 1	–	260.16 ± 0.58
209.62 K, Crystal 1	–	263.57 ± 0.67
210 K, Crystal 1	290.43 ± 1	263.74 ± 0.67
215.39 K, Crystal 1	–	266.9 ± 0.67
220 K, Crystal 1	302.81 ± 1.1	269.06 ± 0.67
221.19 K, Crystal 1	–	269.39 ± 0.67
226.95 K, Crystal 1	–	272.55 ± 0.67
230 K, Crystal 1	314.87 ± 1.1	274.21 ± 0.67
232.71 K, Crystal 1	–	275.46 ± 0.67
238.48 K, Crystal 1	–	277.79 ± 0.67
240 K, Crystal 1	326.68 ± 1.2	278.37 ± 0.67
244.25 K, Crystal 1	–	279.78 ± 0.67
250 K, Crystal 1	338.07 ± 1.2	281.53 ± 0.67
250.07 K, Crystal 1	–	281.53 ± 0.67
256.04 K, Crystal 1	–	283.36 ± 0.67
260 K, Crystal 1	349.21 ± 1.2	284.44 ± 0.67
262.1 K, Crystal 1	–	285.02 ± 0.67
268.12 K, Crystal 1	–	286.68 ± 0.67
270 K, Crystal 1	359.93 ± 1.2	287.18 ± 0.67
274.34 K, Crystal 1	–	288.18 ± 0.67
280 K, Crystal 1	370.49 ± 1.2	290.18 ± 0.67
280.52 K, Crystal 1	–	290.51 ± 0.67
286.4 K, Crystal 1	–	292.01 ± 0.67
290 K, Crystal 1	380.72 ± 1.3	293.09 ± 0.67
292.34 K, Crystal 1	–	293.92 ± 0.67
298.15 K, Crystal 1	388.87 ± 1.3	295.66 ± 0.67
298.3 K, Crystal 1	–	295.25 ± 0.67
300 K, Crystal 1	390.7 ± 1.3	296.16 ± 0.67
304.21 K, Crystal 1	–	297.33 ± 0.67
310 K, Crystal 1	400.43 ± 1.3	298.91 ± 0.67
310.08 K, Crystal 1	–	298.91 ± 0.67
315.97 K, Crystal 1	–	300.4 ± 0.67
320 K, Crystal 1	409.99 ± 1.4	301.15 ± 0.67
321.87 K, Crystal 1	–	301.57 ± 0.67
325 K, Crystal 1	414.64 ± 1.4	302.23 ± 0.67

Settings	Triple point temperature [K]
[2], Crystal 2, Adiabatic calorimetry	92.84 ± 0.09
